Assay results reported in the METLIN SMRT retention time set (Domingo-Almenara et al. 2019).

Assay: gradient 5% acetonitrile 3 min, to 50% in 2 min, to 85% in 15 min, held 3 min, 100 µL/min
Details: column: Zorbax Extend-C18 2.1 x 50 mm; eluents: water / acetonitrile, 0.1% formic acid
Summary of the method: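 Using water and acetonitrile that each contained 0.1% formic acid, mixtures of ~100 pure standards were separated at 100 μL/min on a Zorbax Extend-C18 column (2.1 × 50 mm, 1.8 μm). The HPLC fed a quadrupole time-of-flight mass spectrometer working in positive and negative ionization mode, with dead and dwell volumes of 40 μL and 900 μL. Data were acquired over 3 months. Retention time was read from computationally picked adduct peaks after manual inspection of each.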

Compound | RP-LC retention time
Cc1oc2nc3c(c(=O)n(CC(=O)OCc4ccccc4)c(=O)n3C)n2c1C | 840 s
COc1ccc(S(=O)(=O)N2CCCC(C)(C(=O)NCc3ccccc3)C2)cc1 (stereo unspecified) | 917 s
O=C(Nc1ccc(Cl)cc1F)C1CCN(c2nccnc2Sc2ccccc2)CC1 | 1190 s
O=C(NCCc1ccccc1)N1C[C@@H]2C[C@H]1C[C@@H]2NS(=O)(=O)c1ccccc1 | 820 s
CCS(=O)(=O)Nc1ccc(C2(C(=O)NCc3ccccc3)CCCCC2)cc1 | 903 s
O=C(CS(=O)(=O)Cc1ccccc1)NCc1ccccc1 | 741 s
O=C(NCC(c1ccsc1)N1CCCC1)Nc1ccc(Cl)cc1 (stereo unspecified) | 578 s
COc1ccccc1-c1csc(NC(=O)c2sc(COc3cccc(C)c3)nc2C)n1 | 1250 s
O=C(Nc1ccc(Cl)cc1)Nc1cccn2ncnc12 | 838 s
COc1ccc(OC)c(-c2[nH]ncc2CN2CC(F)(F)C[C@H]2CN2CCCCCC2)c1 | 578 s
CCN1C(=O)c2cccnc2Sc2cc(CNC(=O)c3cccnc3SC)ccc21 | 721 s
Cc1nnc2c(=O)n(CC(=O)NCc3ccc(F)cc3Cl)c3cccnc3n12 | 710 s
CC(C)CN1C(=O)c2cccn2CC1C(=O)NCCCN1CCCC1=O (stereo unspecified) | 617 s
O=S(=O)(NCc1nc(-c2cccc(-c3ccn[nH]3)c2)no1)c1ccccc1 | 768 s
COCCN(CCOC)c1ncnc2c1cnn2-c1ccc(C)cc1C | 902 s
CCOC(=O)c1ccccc1NC(=O)c1nc(SC)ncc1Cl | 1240 s
COc1ccc(Cl)c2c(=O)c3c([nH]c12)CCN(CC(=O)NCc1ccccc1F)C3 | 625 s
COc1ccc(N2CC(c3nc(-c4cccc(-c5ccnn5C)c4)no3)CC2=O)cc1 (stereo unspecified) | 844 s
COCC(=O)N(C1CCOCC1)C1CCN(S(=O)(=O)c2ccc(F)c(F)c2)CC1 | 788 s
COc1cc(NC(=O)C2CCN(S(=O)(=O)c3ccc4c(c3)NC(=O)C(C)O4)CC2)cc(OC)c1 (stereo unspecified) | 811 s
CC1(C)CCC[C@]2(C)[C@H]3CC(=O)O[C@]3(C)CC[C@@H]12 | 1220 s
COc1ccccc1CC(=O)Nc1cccn2cnnc12 | 674 s
Cc1ccc(NS(=O)(=O)c2cc3n(c2)CCN(C)C3=O)cc1C | 722 s

Other lines, results leading:

RP-LC retention time | Compound
802 s | Cc1ccc(S(=O)(=O)N2CCCC(Cn3cnc4cccnc43)C2)cc1F (stereo unspecified)
740 s | CC(C)CCNC(=O)Cn1c(=O)c2cnc(-c3ccc(Cl)cc3)nc2n(C)c1=O
759 s | Cc1nc(-c2ccc(N3CCN(C(=O)c4ccco4)CC3)nc2)sc1C
973 s | O=C(c1nnn(-c2ccccc2Cl)c1-c1ccncc1)N1CCN(c2ccccn2)CC1
671 s | COc1ccc2c(c1)c(CN1CCC(C(=O)NCCc3ccco3)CC1)cn2C
701 s | Cc1ccc(CNC(=O)C2CCCN(c3cc(=O)n(C)c(=O)n3C)C2)cc1 (stereo unspecified)
679 s | O=C(NCc1cc(F)cc(F)c1)C1CCN(c2cc(N3CCSCC3)ncn2)CC1
708 s | O=C(NC1CCN(c2cc(-c3ccccc3)[nH]n2)C1)c1cc(F)ccc1Cl (stereo unspecified)
901 s | COc1ccc(-c2noc(C3CCCN3C(=O)c3ccccc3OC)n2)cc1 (stereo unspecified)
754 s | O=C(NCc1ccccc1)C1CCCN(c2ncnc3c2oc2ccccc23)C1 (stereo unspecified)
757 s | Cc1cccc(CNC(=O)C2CCN(c3nnc4c(Cl)cccn34)CC2)c1C
786 s | CC(C)n1c(N2CCN(C(=O)C3CC(=O)N(CCc4ccccc4)C3)CC2)cc(=O)n(C(C)C)c1=O (stereo unspecified)
707 s | CCCNC(=O)C1CCN(c2ccc(SCC(=O)Nc3ccc4c(c3)CCC4)nn2)CC1
